Experimental data from ChEMBL document CHEMBL1201862, “PubChem BioAssay data set” (2004).
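A five-concentration, 48-hour dose response in 96-well plates underlies each endpoint, interpolated linearly between surrounding concentrations. Abbreviation: GI50, concentration required for 50% inhibition of growth.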 Active and inactive are the calls of the source. No stated cut-off is given here; in the data, active = GI50 up to about 1.1 µM and inactive = higher.

Tests used:
Assay in all cases: NCI anticancer screen, dose series, 48 h
SK-OV-3 = tested on: SK-OV-3
HL-60 = tested on: HL-60
OVCAR-8 = tested on: OVCAR-8
DMS-114 = tested on: DMS-114
NCI-H23 = tested on: NCI-H23
SF-295 = tested on: SF-295
SK-MEL-2 = tested on: SK-MEL-2
A498 = tested on: A498
IGROV-1 = tested on: IGROV-1
EKVX = tested on: EKVX
TK-10 = tested on: TK-10
HT-29 = tested on: HT-29
HCC 2998 = tested on: HCC 2998
DMS-273 = tested on: DMS-273
KM12 = tested on: KM12
SK-MEL-28 = tested on: SK-MEL-28
SNB-78 = tested on: SNB-78
LOX IMVI = tested on: LOX IMVI
UACC-62 = tested on: UACC-62
MOLT-4 = tested on: MOLT-4
SW-620 = tested on: SW-620
A549 = tested on: A549
786-0 = tested on: 786-0
DLD-1 = tested on: DLD-1
HCT-15 = tested on: HCT-15
LXFL 529 = tested on: LXFL 529
COLO 205 = tested on: COLO 205
SN12C = tested on: SN12C
OVCAR-3 = tested on: OVCAR-3
NCI-H226 = tested on: NCI-H226
SNB-75 = tested on: SNB-75
UO-31 = tested on: UO-31
M19-MEL = tested on: M19-MEL
M14 = tested on: M14
SK-MEL-5 = tested on: SK-MEL-5
RPMI-8226 = tested on: RPMI-8226
K562 = tested on: K562
CCRF-CEM = tested on: CCRF-CEM
RXF 631 = tested on: RXF 631
SNB-19 = tested on: SNB-19
HOP-18 = tested on: HOP-18
SF-539 = tested on: SF-539
U-251 = tested on: U-251
OVCAR-4 = tested on: OVCAR-4
ACHN = tested on: ACHN
HOP-92 = tested on: HOP-92
KM-20L2 = tested on: KM-20L2
HCT-116 = tested on: HCT-116
HOP-62 = tested on: HOP-62
OVCAR-5 = tested on: OVCAR-5
NCI-H522 = tested on: NCI-H522
Malme-3M = tested on: Malme-3M
RXF 393 = tested on: RXF 393
CAKI-1 = tested on: CAKI-1
UACC-257 = tested on: UACC-257
SF-268 = tested on: SF-268
NCI-H460 = tested on: NCI-H460

Measured: GI50

COc1cc2c(c3oc(-c4ccc5c(c4)OCO5)c(O)c(=O)c13)CCC(C)(C)O2
> 100 µM: HCT-15
inactive: SK-OV-3 > 100 µM | HL-60 > 100 µM | OVCAR-8 > 100 µM | DMS-114 > 100 µM | NCI-H23 > 100 µM | SF-295 > 100 µM | SK-MEL-2 > 100 µM | A498 > 100 µM | IGROV-1 > 100 µM | EKVX > 100 µM | TK-10 > 100 µM | HT-29 > 100 µM | HCC 2998 > 100 µM | DMS-273 > 100 µM | KM12 > 100 µM | SK-MEL-28 > 100 µM | SNB-78 > 100 µM | LOX IMVI > 100 µM | UACC-62 > 100 µM | MOLT-4 > 100 µM | SW-620 > 100 µM | A549 > 100 µM | 786-0 > 100 µM | DLD-1 > 100 µM | LXFL 529 22.9 µM | COLO 205 > 100 µM | SN12C > 100 µM | OVCAR-3 > 100 µM | NCI-H226 > 100 µM | SNB-75 12.3 µM | UO-31 > 100 µM | M19-MEL > 100 µM | M14 > 100 µM | SK-MEL-5 > 100 µM | RPMI-8226 34.5 µM | K562 > 100 µM | CCRF-CEM 79.8 µM | RXF 631 > 100 µM | SNB-19 > 100 µM | HOP-18 > 100 µM | SF-539 > 100 µM

COCC1N=C(c2cc(OC)c(OC)c(OC)c2-c2cc3c(cc2[C@H](C)O)OCO3)O[C@H]1c1ccccc1 (stereo partly drawn)
56.9 µM: HCT-15
inactive: U-251 65.2 µM | SK-OV-3 > 100 µM | HL-60 > 10 µM | OVCAR-8 81.5 µM | NCI-H23 87.7 µM | SF-295 48.2 µM | SK-MEL-2 36.7 µM | IGROV-1 > 100 µM | EKVX > 100 µM | OVCAR-4 33.5 µM | TK-10 > 100 µM | HT-29 76.2 µM | HCC 2998 > 100 µM | DMS-273 37.2 µM | KM12 52.6 µM | SK-MEL-28 59.2 µM | SNB-78 61 µM | LOX IMVI 63.2 µM | UACC-62 > 100 µM | MOLT-4 41.6 µM | SW-620 > 100 µM | A549 56.8 µM | 786-0 > 100 µM | DLD-1 83.6 µM | LXFL 529 37.7 µM | ACHN 40.7 µM | COLO 205 30.1 µM | SN12C 46.5 µM | OVCAR-3 47.4 µM | HOP-92 27.2 µM | NCI-H226 > 100 µM | SNB-75 49.2 µM | UO-31 58.6 µM | M19-MEL 37.1 µM | M14 72.3 µM | SK-MEL-5 42.4 µM | KM-20L2 > 100 µM | RPMI-8226 31 µM | HCT-116 44.6 µM | K562 > 10 µM | CCRF-CEM > 10 µM | RXF 631 > 100 µM | SNB-19 61 µM | HOP-18 88.9 µM | SF-539 69.7 µM

CCOc1ccccc1NC(=O)C(=O)C(C(=O)c1ccc2ccccc2c1)C1OC(=O)c2ccccc21 (stereo not drawn)
14.2 µM: HCT-15
inactive: U-251 6.64 µM | HOP-62 13.4 µM | SK-OV-3 15.4 µM | HL-60 10 µM | OVCAR-8 8.49 µM | DMS-114 9.62 µM | NCI-H23 7.64 µM | OVCAR-5 21.2 µM | NCI-H522 11.8 µM | SK-MEL-2 13.2 µM | Malme-3M 14.3 µM | A498 14.3 µM | IGROV-1 13 µM | RXF 393 2.26 µM | EKVX 22.2 µM | OVCAR-4 4.61 µM | TK-10 24.4 µM | HT-29 28.6 µM | HCC 2998 10.7 µM | DMS-273 12.3 µM | KM12 20.8 µM | SK-MEL-28 10.4 µM | SNB-78 11.6 µM | CAKI-1 10.4 µM | LOX IMVI 12.5 µM | UACC-62 8.77 µM | MOLT-4 3.37 µM | SW-620 6.31 µM | A549 21.4 µM | 786-0 7.78 µM | DLD-1 15.2 µM | LXFL 529 5.21 µM | UACC-257 13.7 µM | ACHN 29.2 µM | SF-268 5.86 µM | COLO 205 14.8 µM | SN12C 15.5 µM | OVCAR-3 12.7 µM | HOP-92 10.5 µM | NCI-H226 1.82 µM | SNB-75 8.77 µM | NCI-H460 6.68 µM | UO-31 12.7 µM | M14 15.9 µM | SK-MEL-5 10.6 µM | KM-20L2 28.3 µM | RPMI-8226 6.08 µM | HCT-116 9.2 µM | K562 17.1 µM | CCRF-CEM 8.22 µM | RXF 631 6.18 µM | SNB-19 4.53 µM | HOP-18 16.6 µM | SF-539 7.08 µM
